{"source": "patent US20050221381A1", "about": "“Method for isolating ligands” (priority 2002, published 2005)", "key": {"[1]": {"test_system": "PBMC from CMV seropositive donors", "type": "cell-based, human"}, "[2]": {"target": "T1, soluble DRB1*0401 molecules (DR4) (Homo sapiens, UniProt P01903+P01911, A100K/A169T/F76Y/I96L/K127E/L162R/M171V/N62H/P40V/Q125Y/R42H/S133A/S149N/S66Y/V115G/V209L/W38E)", "T1 construct": "Soluble HLA class I A*0201 and HLA class II DRA1*0101/DRB1*0101/Ii, DRA1*0101/DRB1*0401/Ii and DRA1*0101/DRB1*0404/Ii molecules were expressed in SC-2 cells; made in house; host or cells: SC-2 cells", "type": "binding", "design": "key to DR4 binding: +++: high binding affinity; ++: moderate binding affinity; +: low binding affinity; −: no binding; key to Binding to DRB1 *0401: −: no binding/T cell response; +/−: weak binding/T cell response; +: intermediate binding/T cell response; ++: strong binding/T cell response", "conditions": "for DR4 binding: direct binding of individual peptides, SDS-stability assay, compared with YAR and HA306-318"}, "[3]": {"test_system": "HLA-DRB1*0401-transgenic mice splenocytes", "type": "in vivo, mouse", "design": "key to DRB1*0401 mice total SC (T cell response) / DRB1*0401 mice CD4+ (T cell response): −: no binding/T cell response; +/−: weak binding/T cell response; +: intermediate binding/T cell response; ++: strong binding/T cell response"}, "[4]": {"target": "T1, soluble DRB1*0401 molecules (DR4)", "type": "binding", "design": "key: +++: high binding affinity; ++: moderate binding affinity; +: low binding affinity; −: no binding", "conditions": "individual pp65 15mer, SDS-stability assay"}, "[5]": {"conditions": "IFN-gamma ELISpot, enriched CD4+ fraction of splenocytes of HLA-DR4 transgenic mice vaccinated with the longer peptide, ex vivo re-stimulation"}, "[6]": {"conditions": "IFN-gamma ELISpot, total splenocytes of HLA-DR4 transgenic mice vaccinated with the longer peptide, ex vivo re-stimulation"}}, "note": "Like-named read-outs stand apart in the source and are kept apart here."}
{"sequence": "RKTPRVTGGGAMAGA [Peptide 415]", "values": [{"measurement": "Recognition by T cells in HLA context other than described", "setting": "[1]", "value": "recognized by T cells in a different HLA context than known before"}]}
{"sequence": "TGSGAGIAQAAAGTV [Peptide 1236]", "values": [{"measurement": "DR4 binding", "setting": "[2]", "value": "+"}]}
{"sequence": "QRGPQYSEHPTFTSQ [Peptide 358]", "values": [{"measurement": "DRB1*0401 mice CD4+ (T cell response)", "setting": "[3]; mouse, in vivo", "value": "+/−"}, {"measurement": "DRB1*0401 mice total SC (T cell response)", "setting": "[3]; mouse, in vivo, sc", "value": "++"}]}
{"sequence": "YYTSAFVFPTKDVAL [Peptide 181]", "values": [{"measurement": "Binding to DRB1 *0401", "setting": "[2]; soluble DRB1*0401 molecules", "value": "−"}, {"measurement": "DRB1*0401 mice CD4+ (T cell response)", "setting": "[3]; [5]", "value": "+/−"}, {"measurement": "DRB1*0401 mice total SC (T cell response)", "setting": "[3]; [6]", "value": "+"}]}
{"sequence": "QYSEHPTFTSQYRIQ [Peptide 362]", "values": [{"measurement": "DRB1*0401 mice CD4+ (T cell response)", "setting": "[3]; mouse, in vivo", "value": "++"}, {"measurement": "DRB1*0401 mice total SC (T cell response)", "setting": "[3]; mouse, in vivo, sc", "value": "+"}]}
{"sequence": "TKMQVIGDQYVKVYL [Peptide 214]", "values": [{"measurement": "Induction of IFN-gamma secretion in T cells / PBMC from CMV seropositive donors", "setting": "[1]", "value": "can induce functional, IFN-gamma secreting T cells in humans"}]}
{"sequence": "YTSAFVFPTKDVALR [Peptide 182]", "values": [{"measurement": "DRB1*0401 mice CD4+ (T cell response)", "setting": "[3]; [5]", "value": "+/−"}, {"measurement": "DRB1*0401 mice total SC (T cell response)", "setting": "[3]; [6]", "value": "+/−"}]}
{"sequence": "LKAESTVAPEEDTDE [Peptide 456]", "values": [{"measurement": "DRB1*0401 mice CD4+ (T cell response)", "setting": "[3]; [5]", "value": "−"}, {"measurement": "DRB1*0401 mice total SC (T cell response)", "setting": "[3]; [6]", "value": "−"}]}
{"sequence": "YQEFFWDANDIYRIF [Peptide 510]", "values": [{"measurement": "Binding to DRB1 *0401", "setting": "[2]; soluble DRB1*0401 molecules", "value": "−"}, {"measurement": "Binding to DRB1*0401", "setting": "[4]", "value": "−"}, {"measurement": "DRB1*0401 mice CD4+ (T cell response)", "setting": "[3]; [5]", "value": "++"}, {"measurement": "DRB1*0401 mice total SC (T cell response)", "setting": "[3]; [6]", "value": "++"}]}
{"sequence": "IHNPAVFTWPPWQAG [Peptide 476]", "values": [{"measurement": "Induction of IFN-gamma secretion in T cells / PBMC from CMV seropositive donors", "setting": "[1]", "value": "can induce functional, IFN-gamma secreting T cells in humans"}]}
{"sequence": "LEYRHTWDRHDEGAA [Peptide 379]", "values": [{"measurement": "Binding to DRB1*0401", "setting": "[4]", "value": "−"}]}
{"sequence": "PAVFTWPPWQAGILA [Peptide 479]", "values": [{"measurement": "Induction of IFN-gamma secretion in T cells / PBMC from CMV seropositive donors", "setting": "[1]", "value": "can induce functional, IFN-gamma secreting T cells in humans"}]}
{"sequence": "VTTERKTPRVTGGGA [Peptide 411]", "values": [{"measurement": "Recognition by T cells in HLA context other than described", "setting": "[1]", "value": "recognized by T cells in a different HLA context than known before"}]}
{"sequence": "QGQNLKYQEFFWDAN [Peptide 504]", "values": [{"measurement": "Binding to DRB1 *0401", "setting": "[2]; soluble DRB1*0401 molecules", "value": "−"}, {"measurement": "DRB1*0401 mice CD4+ (T cell response)", "setting": "[3]; [5]", "value": "−"}, {"measurement": "DRB1*0401 mice total SC (T cell response)", "setting": "[3]; [6]", "value": "−"}]}
{"sequence": "GDDDVWTSGSDSDEE [Peptide 395]", "values": [{"measurement": "Recognition by T cells in HLA context other than described", "setting": "[1]", "value": "recognized by T cells in a different HLA context than known before"}]}
{"sequence": "RHTWDRHDEGAAQGD [Peptide 382]", "values": [{"measurement": "Binding to DRB1 *0401", "setting": "[2]; soluble DRB1*0401 molecules", "value": "−"}, {"measurement": "Binding to DRB1*0401", "setting": "[4]", "value": "−"}, {"measurement": "DRB1*0401 mice CD4+ (T cell response)", "setting": "[3]; [5]", "value": "−"}, {"measurement": "DRB1*0401 mice total SC (T cell response)", "setting": "[3]; [6]", "value": "−"}]}
{"sequence": "RLKAESTVAPEEDTD [Peptide 455]", "values": [{"measurement": "Binding to DRB1 *0401", "setting": "[2]; soluble DRB1*0401 molecules", "value": "+"}, {"measurement": "Binding to DRB1*0401", "setting": "[4]", "value": "−"}, {"measurement": "DRB1*0401 mice CD4+ (T cell response)", "setting": "[3]; [5]", "value": "+/−"}, {"measurement": "DRB1*0401 mice total SC (T cell response)", "setting": "[3]; [6]", "value": "+/−"}]}
{"sequence": "RQQNQWKEPDVYYTS [Peptide 170]", "values": [{"measurement": "Binding to DRB1*0401", "setting": "[4]", "value": "−"}]}
{"sequence": "LLQRGPQYSEHPTFT [Peptide 356]", "values": [{"measurement": "DRB1*0401 mice CD4+ (T cell response)", "setting": "[3]; [5]", "value": "+/−"}, {"measurement": "DRB1*0401 mice total SC (T cell response)", "setting": "[3]; [6]", "value": "+/−"}]}
{"sequence": "AETPGCVAYIGISFLDQ [Peptide 1239]", "values": [{"measurement": "DR4 binding", "setting": "[2]", "value": "−"}]}
{"sequence": "SLILVSQYTPDSTPC [Peptide 54]", "values": [{"measurement": "Binding to DRB1 *0401", "setting": "[2]; soluble DRB1*0401 molecules", "value": "−"}, {"measurement": "Binding to DRB1*0401", "setting": "[4]", "value": "−"}, {"measurement": "DRB1*0401 mice CD4+ (T cell response)", "setting": "[3]; [5]", "value": "+/−"}, {"measurement": "DRB1*0401 mice total SC (T cell response)", "setting": "[3]; [6]", "value": "−"}]}
{"sequence": "HNPAVFTWPPWQAGI [Peptide 477]", "values": [{"measurement": "Induction of IFN-gamma secretion in T cells / PBMC from CMV seropositive donors", "setting": "[1]", "value": "can induce functional, IFN-gamma secreting T cells in humans"}]}
{"sequence": "RIFAELEGV", "values": [{"measurement": "Frequency in screen (number of refinding/number of donors' expressing the respective HLA type)", "setting": "[1]; literature known class I epitopes", "value": "1/9"}]}
{"sequence": "KTPRVTGGGANAGAS [Peptide 416]", "values": [{"measurement": "Recognition by T cells in HLA context other than described", "setting": "[1]", "value": "recognized by T cells in a different HLA context than known before"}]}
{"sequence": "GVSTANATVYMIDSVL [Peptide 1237]", "values": [{"measurement": "DR4 binding", "setting": "[2]", "value": "++"}]}
{"sequence": "LQRGPQYSEHPTFTS [Peptide 357]", "values": [{"measurement": "DRB1*0401 mice CD4+ (T cell response)", "setting": "[3]; mouse, in vivo", "value": "+/−"}, {"measurement": "DRB1*0401 mice total SC (T cell response)", "setting": "[3]; mouse, in vivo, sc", "value": "+"}]}
{"sequence": "KYQEFFWDANDIYRI [Peptide 509]", "values": [{"measurement": "Binding to DRB1 *0401", "setting": "[2]", "value": "−"}, {"measurement": "DRB1*0401 mice CD4+ (T cell response)", "setting": "[3]; mouse, in vivo", "value": "++"}, {"measurement": "DRB1*0401 mice total SC (T cell response)", "setting": "[3]; mouse, in vivo, sc", "value": "++"}]}
{"sequence": "GQNLKYQEFFWDAND [Peptide 505]", "values": [{"measurement": "Binding to DRB1 *0401", "setting": "[2]; soluble DRB1*0401 molecules", "value": "−"}, {"measurement": "DRB1*0401 mice CD4+ (T cell response)", "setting": "[3]; [5]", "value": "−"}, {"measurement": "DRB1*0401 mice total SC (T cell response)", "setting": "[3]; [6]", "value": "+"}]}
{"sequence": "EFFWDANDIYRIFAE [Peptide 512]", "values": [{"measurement": "Binding to DRB1*0401", "setting": "[4]", "value": "−"}]}
{"sequence": "MQVIGDQYVKVYLES [Peptide 216]", "values": [{"measurement": "Induction of IFN-gamma secretion in T cells / PBMC from CMV seropositive donors", "setting": "[1]", "value": "can induce functional, IFN-gamma secreting T cells in humans"}]}
